# According to US20040235922A1, “Compositions and methods for inducing adipose tissue cell death” (priority 2003, published 2004):
# Entries after “also recorded” stand apart in the source; their conditions may differ.
# How the values were obtained:
# serum leptin = test: Serum leptin concentration in WT and GDF-8 KO mice (Example 2); format: in vivo; conditions: 200 ppm in diet
# Method: (§1) Animals: Twelve-week old male (n=10) and female (n=10) GDF-8 (−/−) knockout mice and male (n=10) and female (n=10) GDF-8 (+/+) WT mice were used in the study. GDF-8 knockout mice, which were derived from the 129/SvJ mouse strain, were originally obtained from MetaMorphix Inc. and were bred in-house for the study. Mice were housed singly in suspended wire cages in a room maintained at 22±1 C and with a 12:12 hour light/dark cycle. Mice were provided ground rodent chow (ProLab® RMH 2500; Purina Mills, St. Louis, Mo.) and water ad libitum. Mice were cared for in accordance with the Guide for the Care and Use of Laboratory Animals.
# (§2) Materials: Clenbuterol (Sigma Chemical Company, St. Louis, Mo., item# C5423), was thoroughly mixed into the ground rodent chow to provide a 200 ppm concentration.
# (§3) Daily Observations: Food intake was measured daily, and body weight was measured on days 0, 3, 7, 10, 14, 17, 20, and 21 at approximately 1430 h during the treatment period. At 15 weeks of age (day 21), a final body weight measurement was obtained approximately one hour prior to euthanasia, and mice were sacrificed by decapitation following CO2 asphyxiation.
# [1] = Body composition analysis by PIXImus densitometry in WT and GDF-8 KO mice (Example 2); format: in vivo; conditions: 200 ppm in diet, 21 days
# EPI/PAR and RP fat pads = test: EPI/PAR and RP fat pad apoptosis, % DNA fragmentation (Example 2); format: in vivo; conditions: 200 ppm in diet, 21 days, WT and GDF-8 KO mice
# Method: as §1, §2
# DNA Isolation and Apoptosis Assay: DNA was isolated from fresh fat tissues and separated into two fractions: fragmented and genomic DNA. The samples were first run on an agarose gel to identify a ladder pattern of internucleosomal DNA degradation, which is characteristic of apoptosis (Qian, H., M. J. Azain, M. M. Compton, D. L. Hartzell, G. J. Hausman, and C. A. Baile, Brain administration of leptin causes deletion of adipocytes by apoptosis. Endocrinology, 1998. 139(2): p. 791-4). Apoptosis was then quantified as the ratio of fragmented- to total-DNA as previously described (Gullicksen, P. S., R. G. Dean, and C. A. Baile, Detection of DNA Fragmentation and Apoptotic Proteins, and Quantification of Uncoupling Protein Expression by Real-Time RT-PCR in Adipose Tissue. J Biochem Biophys Methods, 2004. 58(1): p. 1-13). […] DNA content was measured using PicoGreen (Molecular Probes, Inc., Eugene, Oreg.) on a SpectraMax Gemini Spectrofluorometer (Molecular Devices, Sunnyvale, Calif.). […] Apoptosis was verified by the presence of a DNA ladder pattern, which was visualized by a Fluor Chem 8000 fluorescence imaging system (Alpha Innotech, San Leandro, Calif.).
# Statistical Analysis: The study was analyzed as a 2×2×2 factorial design (N=5/cell). […]
# [2] = Clenbuterol feeding for 21 days in WT and GDF-8 KO mice: body weight, weight gain, food intake, feed efficiency (Example 2); format: in vivo; conditions: 200 ppm in diet
# Method: The effects of clenbuterol on muscularity and adiposity in male and female GDF-8 knockout (GDF-8 KO) (n=20) and wild type (WT) mice (n=20) were tested by feeding 0 or 200 ppm clenbuterol for 21 days. […] For all other variables, GDF-8 KO and WT mice responded similarly to clenbuterol.
# as §1, §2, §3
# Statistical Analysis: The study was analyzed as a 2×2×2 factorial design (N=5/cell). Analysis of variance (SAS) was used to determine significance of main effects of gender, genotype (WT vs. GDF-8 KO) and clenbuterol (0 vs. 200 ppm) and interactions. Statistically significant differences are defined at the 95% confidence interval.
# Feed efficiency was calculated as the total food intake (g)/cumulative weight gain (g). There was a trend (p=0.07) for clenbuterol to improve feed efficiency (g feed/g weight gain) (Table 3).
# mouse adipocytes [3] = conditions: in vitro; cited from earlier work
# mouse adipocytes [4] = conditions: in vitro; cited from earlier work; remark: listed apart in the source
# brain and liver = conditions: in vivo; cited from earlier work
# [5] = WT and GDF-8 KO mice, Mean ± SEM
# [6] = WT and GDF-8 KO mice, main effect, Mean ± SEM
smiles,measurement,setting,value
"CC(C)(C)NCC(O)c1cc(Cl)c(N)c(Cl)c1 (stereo not drawn) [Clenbuterol, clenbuterol]",Effect on serum leptin concentrations,serum leptin,did not significantly affect; also recorded: not affected
same,Serum Leptin Concentration,"serum leptin; 20 days, Mean ± SEM",3.98 ± 0.49 ng/mL
same,% Fat,[1]; [5],15.7 ± 1.0%
same,Bone Mineral Content,[1]; [5],0.52 ± 0.02 g
same,Bone Mineral Density,[1]; [5],0.06 ± 0.001 g
same,Fat,[1]; [5],4.1 ± 0.2 g
same,Lean,[1]; [5],22.7 ± 1.1 g
same,"Effect on BMD, BMC, area, lean weight, fat weight, or fat %",[1]; main effects,no effect
same,Adipocyte apoptosis in EPI/PAR and RP fat pads compared to control,EPI/PAR and RP fat pads,increased
same,% DNA Fragmentation EPI/PAR,"EPI/PAR and RP fat pads; Mean ± SEM, control 0.9 ± 0.1",2.5 ± 0.2 %
same,% DNA Fragmentation RP,"EPI/PAR and RP fat pads; Mean ± SEM, control 0.9 ± 0.2",2.5 ± 0.2 %
same,Effect on final body weight (FBW),[2],did not significantly affect
same,Food Intake,[2]; [6],4.78 ± 0.16 g/day
same,Wt Gain,[2]; [6],0.165 ± 0.01 g/day
same,Feed Efficiency,"[2]; WT and GDF-8 KO mice, main effect, p = 0.07",34.4 g feed/g wt gain
same,"Effect on food intake, body weight or body composition",[2]; WT or GDF-8 KO mice,did not affect
same,Final Body Wt,"[2]; female and male WT and GDF-8 KO mice, main effect, Mean ± SEM",29.9 ± 1.2 g
same,Feed efficiency in females compared to control,[2]; female mice,no effect; also recorded: not in females
same,Weight gain in females compared to control,[2]; female mice,not in females
same,Weight gain compared to control,"[2]; main effect, p<0.05",increased
same,Feed efficiency in males compared to control,[2]; male mice,more than doubled; also recorded: significantly improved
same,More efficient (feed efficiency) compared to males fed control diet,[2]; male mice,more than 250%
same,Weight gain in males compared to control,[2]; male mice,significantly increased; also recorded: twice as much
same,Insulin binding to mouse adipocytes,mouse adipocytes [3],decreased
same,Insulin-induced lipolysis in mouse adipocytes,mouse adipocytes [4],inhibited
same,Lipolysis in mouse adipocytes,mouse adipocytes [4],stimulated
same,Apoptosis in brain and liver,brain and liver,protect against apoptosis
